# From patent US8247211B2, “Glycopeptide antibiotics” (American Cyanamid Company, priority 2001, dated 2012)
# Tests used:
# Test in all cases: In vitro antibacterial evaluation: minimum inhibitory concentration (MIC), broth dilution method
# Type in all cases: cell-based
# Enterococcus sp. = tested on: Enterococcus sp.
# Method: (§1) The minimum inhibitory concentration (MIC), the lowest concentration of the antibiotic which inhibits growth of the test organism, is determined by the broth dilution method using Muller-Hinton II […] (Baltimore Biological Laboratories) following the recommendations of the National Committee for Clinical Laboratory Standards [Methods for dilution antimicrobial susceptibility tests for bacteria that grow aerobically, approved standard M7-A2, National Committee for Clinical Laboratory Standards, Villanova, Pa].
# (§2) An inoculum level of 5×10^5 CFU/mL, and a range of antibiotic concentrations (64-0.06 μg/mL) is used. […] The test organisms include a spectrum of Gram-positive bacteria comprised of Staphylococcus sp., Streptococcus sp. and Enterococcus sp. These organisms include recent clinical isolates that are resistant to methicillin, penicillin and/or vancomycin.
# Staphylococcus sp. = conditions: for MIC Staphylococcus aureus-SMITH (GC 4543): strain GC 4543; for MIC Staphylococcus haemolyticus (GC 4546): strain GC 4546; for MIC Coagulase Negative Staphylococcus (GC 4547): strain GC 4547; for MIC Coagulase Negative Staphylococcus (GC 4548): strain GC 4548; for MIC Coagulase Negative Staphylococcus (GC 4549): strain GC 4549; for MIC Coagulase Negative Staphylococcus (GC 4551): strain GC 4551; for MIC Coagulase Negative Staphylococcus (ID-3941): strain ID-3941
# Method: as §1, §2
# Streptococcus sp. = tested on: Streptococcus sp.
# Method: as §1, §2
# Escherichia coli = Escherichia coli (GC 4560); 18 hours at 35° C.
# Method: as §1, §2
# [1] = broth dilution, 18 hours at 35° C.
# [2] = Enterococcus avium (GC 4558), 18 hours at 35° C.
# [3] = broth dilution, inoculum 5×10^5 CFU/mL, 18 hours at 35° C.
structure (smiles),measurement,setting,value
"CC(c1ccccc1)C1NC(=O)CNC(=O)C(CO)NC(=O)C(C(O)C2CNC(=N)N2C2OC(CO)C(O)C(O)C2O)NC(=O)C(C(O)C2CNC(=N)N2)NC(=O)C(Cc2ccc(OC3OC(COC(=O)C(c4ccccc4)c4ccccc4)C(OC4OC(CO)C(O)C(O)C4O)C(O)C3O)cc2)NC1=O (stereo not drawn) [Example 96b, Cyclo[glycyl-β-methylphenylalanyl-O-[6-O-(diphenylacetyl)-4-O-hexopyranosylhexopyranosyl]tyrosyl-3-(2-iminoimidazolidin-4-yl)seryl-3-(3-hexopyranosyl-2-iminoimidazolidin-4-yl)serylseryl]]",MIC Enterococcus faecalis (ATCC 29212),Enterococcus sp.; strain ATCC 29212,8 µg/mL
same,MIC Enterococcus faecalis (GC 2242),Enterococcus sp.; strain GC 2242,4 µg/mL
same,MIC Enterococcus faecium (GC 2243),Enterococcus sp.; strain GC 2243,8 µg/mL
same,MIC Enterococcus faecalis (GC 4552),Enterococcus sp.; strain GC 4552,8 µg/mL
same,MIC Enterococcus faecalis (GC 4553),Enterococcus sp.; strain GC 4553,8 µg/mL
same,MIC Enterococcus faecalis (GC 4554),Enterococcus sp.; strain GC 4554,8 µg/mL
same,MIC Enterococcus faecium (GC 4556),Enterococcus sp.; strain GC 4556,8 µg/mL
same,MIC Enterococcus faecium (GC 4557),Enterococcus sp.; strain GC 4557,1 µg/mL
same,MIC Enterococcus avium (GC 4558),Enterococcus sp.; strain GC 4558,4 µg/mL
same,MIC Staphylococcus aureus (ATCC 29213),Staphylococcus sp.; [1],1 µg/mL
same,MIC Staphylococcus aureus (GC 1131),Staphylococcus sp.; [1],2 µg/mL
same,MIC Staphylococcus aureus (GC 4541),Staphylococcus sp.; [1],1 µg/mL
same,MIC Staphylococcus aureus (GC 4542),Staphylococcus sp.; [1],2 µg/mL
same,MIC Staphylococcus aureus (GC 4544),Staphylococcus sp.; [1],2 µg/mL
same,MIC Staphylococcus aureus (GC 4545),Staphylococcus sp.; [1],1 µg/mL
same,MIC Staphylococcus aureus-SMITH (GC 4543),Staphylococcus sp.; 18 hours at 35° C.,2 µg/mL
same,MIC Staphylococcus aureus-SMITH (GC 4543),Staphylococcus sp.; [1],2 µg/mL
same,MIC Staphylococcus haemolyticus (GC 4546),Staphylococcus sp.,1 µg/mL
same,MIC Staphylococcus haemolyticus (GC 4546),Staphylococcus sp.; [1],1 µg/mL
same,MIC Coagulase Negative Staphylococcus (GC 4547),Staphylococcus sp.,1 µg/mL
same,MIC Coagulase Negative Staphylococcus (GC 4547),Staphylococcus sp.; [1],1 µg/mL
same,MIC Coagulase Negative Staphylococcus (GC 4548),Staphylococcus sp.,0.5 µg/mL
same,MIC Coagulase Negative Staphylococcus (GC 4548),Staphylococcus sp.; [1],0.5 µg/mL
same,MIC Coagulase Negative Staphylococcus (GC 4549),Staphylococcus sp.,0.5 µg/mL
same,MIC Coagulase Negative Staphylococcus (GC 4549),Staphylococcus sp.; [1],0.5 µg/mL
same,MIC Coagulase Negative Staphylococcus (GC 4551),Staphylococcus sp.,2 µg/mL
same,MIC Coagulase Negative Staphylococcus (GC 4551),Staphylococcus sp.; [1],2 µg/mL
same,MIC Coagulase Negative Staphylococcus (ID-3941),Staphylococcus sp.,0.5 µg/mL
same,MIC Coagulase Negative Staphylococcus (ID-3941),Staphylococcus sp.; [1],0.5 µg/mL
same,MIC Streptococcus agalactiae (GC 4564),Streptococcus sp.; strain GC 4564,0.25 µg/mL
same,MIC Streptococcus pneumoniae (GC 4565),Streptococcus sp.; strain GC 4565,<0.12 µg/mL
same,MIC Streptococcus pyogenes (ID-3187),Streptococcus sp.; strain ID-3187,0.25 µg/mL
CC(c1ccccc1)C1NC(=O)CNC(=O)C(CO)NC(=O)C(C(O)C2CNC(=N)N2C2OC(CO)C(O)C(O)C2O)NC(=O)C(C(O)C2CNC(=N)N2)NC(=O)C(Cc2ccc(OC3OC(CO)C(OC4OC5COC(c6ccc(C(=O)c7cc(I)c(I)c(I)c7)cc6)OC5C(O)C4O)C(O)C3O)cc2)NC1=O (stereo not drawn) [Example 187],MIC Enterococcus avium (GC 4558),Enterococcus sp.; [2],16 µg/mL
same,MIC Enterococcus faecalis (ATCC 29212),"Enterococcus sp.; Enterococcus faecalis (ATCC 29212), 18 hours at 35° C.",64 µg/mL
same,MIC Enterococcus faecalis (GC 2242),"Enterococcus sp.; Enterococcus faecalis (GC 2242), 18 hours at 35° C.",64 µg/mL
same,MIC Enterococcus faecalis (GC 2691),"Enterococcus sp.; Enterococcus faecalis (GC 2691), 18 hours at 35° C.",16 µg/mL
same,MIC Enterococcus faecalis (GC 4552),"Enterococcus sp.; Enterococcus faecalis (GC 4552), 18 hours at 35° C.",64 µg/mL
same,MIC Enterococcus faecalis (GC 4553),"Enterococcus sp.; Enterococcus faecalis (GC 4553), 18 hours at 35° C.",32 µg/mL
same,MIC Enterococcus faecalis (GC 4554),"Enterococcus sp.; Enterococcus faecalis (GC 4554), 18 hours at 35° C.",64 µg/mL
same,MIC Enterococcus faecalis (GC 6189),"Enterococcus sp.; Enterococcus faecalis (GC 6189), 18 hours at 35° C.",16 µg/mL
same,MIC Enterococcus faecium (GC 2243),"Enterococcus sp.; Enterococcus faecium (GC 2243), 18 hours at 35° C.",16 µg/mL
same,MIC Enterococcus faecium (GC 4557),"Enterococcus sp.; Enterococcus faecium (GC 4557), 18 hours at 35° C.",16 µg/mL
same,MIC Enterococcus avium (GC 4558),Enterococcus sp.; [3],16 µg/mL
same,MIC Enterococcus faecalis (ATCC 29212),Enterococcus sp.; [3],64 µg/mL
same,MIC Enterococcus faecalis (GC 2242),Enterococcus sp.; [3],64 µg/mL
same,MIC Enterococcus faecalis (GC 2691),Enterococcus sp.; [3],16 µg/mL
same,MIC Enterococcus faecalis (GC 4552),Enterococcus sp.; [3],64 µg/mL
same,MIC Enterococcus faecalis (GC 4553),Enterococcus sp.; [3],32 µg/mL
same,MIC Enterococcus faecalis (GC 4554),Enterococcus sp.; [3],64 µg/mL
same,MIC Enterococcus faecalis (GC 6189),Enterococcus sp.; [3],16 µg/mL
same,MIC Enterococcus faecium (GC 2243),Enterococcus sp.; [3],16 µg/mL
same,MIC Enterococcus faecium (GC 4557),Enterococcus sp.; [3],16 µg/mL
same,MIC Staphylococcus aureus (ATCC 29213),Staphylococcus sp.; strain ATCC 29213,64 µg/mL
same,MIC Staphylococcus aureus (GC 1131),Staphylococcus sp.; strain GC 1131,64 µg/mL
same,MIC Staphylococcus aureus (GC 3051),Staphylococcus sp.; strain GC 3051,64 µg/mL
same,MIC Staphylococcus aureus (GC 3053),Staphylococcus sp.; strain GC 3053,32 µg/mL
same,MIC Staphylococcus aureus (GC 4541),Staphylococcus sp.; strain GC 4541,64 µg/mL
same,MIC Staphylococcus aureus (GC 4542),Staphylococcus sp.; strain GC 4542,64 µg/mL
same,MIC Staphylococcus aureus-SMITH (GC 4543),Staphylococcus sp.,64 µg/mL
same,MIC Staphylococcus aureus (GC 4544),Staphylococcus sp.; strain GC 4544,64 µg/mL
same,MIC Staphylococcus aureus (GC 4545),Staphylococcus sp.; strain GC 4545,64 µg/mL
same,MIC Coagulase Negative Staphylococcus (GC 4548),Staphylococcus sp.,16 µg/mL
same,MIC Coagulase Negative Staphylococcus (GC 4549),Staphylococcus sp.,64 µg/mL
same,MIC Coagulase Negative Staphylococcus (GC 4551),Staphylococcus sp.,32 µg/mL
same,MIC Coagulase Negative Staphylococcus (GC 6257),Staphylococcus sp.; strain GC 6257,32 µg/mL
same,MIC Streptococcus agalactiae (GC 4564),"Streptococcus sp.; Streptococcus agalactiae (GC 4564), 18 hours at 35° C.",<0.12 µg/mL
same,MIC Streptococcus pneumoniae (ATCC 6301),"Streptococcus sp.; Streptococcus pneumoniae (ATCC 6301), 18 hours at 35° C.",<0.12 µg/mL
same,MIC Streptococcus pneumoniae (GC 1894),"Streptococcus sp.; Streptococcus pneumoniae (GC 1894), 18 hours at 35° C.",<0.12 µg/mL
same,MIC Streptococcus pneumoniae (GC 4565),"Streptococcus sp.; Streptococcus pneumoniae (GC 4565), 18 hours at 35° C.",<0.12 µg/mL
same,MIC Streptococcus pyogenes (GC 4563),"Streptococcus sp.; Streptococcus pyogenes (GC 4563), 18 hours at 35° C.",0.5 µg/mL
same,MIC Streptococcus agalactiae (GC 4564),Streptococcus sp.; [3],<0.12 µg/mL
same,MIC Streptococcus pneumoniae (ATCC 6301),Streptococcus sp.; [3],<0.12 µg/mL
same,MIC Streptococcus pneumoniae (GC 1894),Streptococcus sp.; [3],<0.12 µg/mL
same,MIC Streptococcus pneumoniae (GC 4565),Streptococcus sp.; [3],<0.12 µg/mL
same,MIC Streptococcus pyogenes (GC 4563),Streptococcus sp.; [3],0.5 µg/mL
"CC(c1ccccc1)C1NC(=O)CNC(=O)C(CO)NC(=O)C(C(O)C2CNC(=N)N2C2OC(CO)C(O)C3OC(C)(C)OC32)NC(=O)C(C(O)C2CNC(=N)N2)NC(=O)C(Cc2ccc(OC3OC(CO)C(OC4OC5COC(C)(C)OC5C5OC(C)(C)OC45)C4OC(C)(C)OC34)cc2)NC1=O (stereo not drawn) [Example 229b, Cyclo[glycyl-β-methylphenylalanyl-O-[2,3-O-isopropylidene-4-O-(2,3:4,6-di-O-isopropylidene-hexopyranosyl)hexopyranosyl]tyrosyl-3-(2-iminoimidazolidin-4-yl)seryl-3-[2-imino-(2,3-O-isopropylidenehexopyranosyl)imidazolidin-4-yl]serylseryl]]",MIC Enterococcus avium (GC 4558),Enterococcus sp.; [2],64 µg/mL
same,MIC Enterococcus avium (GC 4558),Enterococcus sp.; [3],64 µg/mL
same,MIC Escherichia coli (GC 4560),Escherichia coli,32 µg/mL
